# Several values for one entry are separate records, joined by “and”; a condition that tells them apart may be missing. Equal values may be shown once.
# Legend:
# BACE1 [1] = biological target: T1, BACE1 (Homo sapiens, UniProt P56817); assay: In Vitro Enzymatic BACE FRET (Fluorescence Resonance Energy Transfer) Assay; type: biochemical
# In short: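 One-hour incubation initiated by 50 nM quenched FRET peptide spanning the BACE cleavage site, in 0.05 M acetate (pH 4.2), 100 uM genapol, 10% DMSO final. Tris addition neutralizes pH to end the reaction before fluorescence measurement.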
# BACE1 [2] = biological target: T1, BACE1; assay: In Vitro BACE Cell-based Assay (HEK cell assay): Aβ40 in conditioned medium of cells stably expressing Amyloid Precursor Protein, sandwich ELISA
# In short: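 APP-expressing cells were cultured 24 h in DMEM/10% FBS, then treated 24 h with compounds in 10-point dose response (top 100 μM or 10 μM; 0.1% DMSO final). Secreted Aβ40 was quantified by sandwich ELISA (pAb40 capture, biotinylated 6E10 detection, Europium TRF); IC50 from percent inhibition versus concentration.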
# [3] = HEK cells, read-out: HEK cell assay
# [4] = Table IV, class symbols, read-out: BACE1 FRET assay
# [5] = Table IV, class symbols, read-out: HEK cell assay
# [6] = in vitro BACE FRET enzyme assay, IC50 class symbols, read-out: BACE1 FRET assay
# [7] = HEK cell-based assay, Aβ40 in conditioned medium, IC50 class symbols, read-out: HEK cell assay
# [8] = Table III, IC50's in uM ranges, read-out: BACE1 FRET assay
# [9] = Table III, IC50's in uM ranges, read-out: HEK cell assay
# [10] = Table II, read-out: BACE1 FRET assay
# [11] = Table II, Aβ40, 24 h incubation, read-out: HEK cell assay
# T1 sequence (P56817 46-501, species assumed): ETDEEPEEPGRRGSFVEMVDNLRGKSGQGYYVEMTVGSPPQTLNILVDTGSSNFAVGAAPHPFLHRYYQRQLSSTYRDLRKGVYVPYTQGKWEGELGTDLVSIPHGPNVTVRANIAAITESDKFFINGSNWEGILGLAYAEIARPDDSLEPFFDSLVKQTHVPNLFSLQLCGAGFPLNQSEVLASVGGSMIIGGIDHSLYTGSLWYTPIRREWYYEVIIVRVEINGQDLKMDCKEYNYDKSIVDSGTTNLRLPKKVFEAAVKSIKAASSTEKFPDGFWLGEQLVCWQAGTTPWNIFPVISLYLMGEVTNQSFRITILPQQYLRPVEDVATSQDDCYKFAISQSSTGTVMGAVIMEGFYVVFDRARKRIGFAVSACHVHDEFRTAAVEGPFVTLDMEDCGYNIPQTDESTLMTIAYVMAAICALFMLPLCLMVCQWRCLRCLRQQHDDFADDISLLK
structure (smiles),measurement,setting,value
COC(C)(C)C#Cc1cnc2c(c1)[C@]1(COC(N)=N1)c1cc(-c3ccnc(F)c3)ccc1O2 [compound 687],IC50,BACE1 [1]; read-out: BACE1 FRET assay,1 to 5 µM
same,IC50,BACE1 [2]; read-out: HEK cell assay,> 5 µM
CC(C)(F)COc1cc2c(cc1F)Oc1ccc(-c3cncnc3)cc1[C@@]21COC(N)=N1 [compound 530],IC50,BACE1 [1]; read-out: BACE1 FRET assay,< 0.1 µM
same,IC50,BACE1 [2]; [3],< 0.1 µM
CC(C)(C)COc1ccc2c(c1)[C@]1(COC(N)=N1)c1cc(C3CC4CCC3C4)ccc1O2 (stereo partly drawn) [compound 700],IC50,BACE1 [1]; read-out: BACE1 FRET assay,0.1 to 1 µM
same,IC50,BACE1 [2]; read-out: HEK cell assay,> 5 µM
Cn1ccc2cc(-c3ccc4c(c3)[C@@]3(COC(N)=N3)c3cc(OCC(C)(C)C)ccc3O4)ccc21 [compound 914],IC50,BACE1 [1]; [4],0.1 to 1 µM
same,IC50,BACE1 [2]; [5],> 5 µM
NC1=N[C@]2(CO1)c1cc(-c3cccnc3)ccc1Oc1cnc(C3CC3)cc12 [compound 678],IC50,BACE1 [1]; read-out: BACE1 FRET assay,< 0.1 µM
same,IC50,BACE1 [2]; read-out: HEK cell assay,0.1 to 1 µM
CN(C)C(=O)c1ccc2c(c1)[C@]1(COC(N)=N1)c1cc(OCC(C)(C)C)ccc1O2 [compound 799],IC50,BACE1 [1]; [4],0.1 to 1 µM
same,IC50,BACE1 [2]; [5],0.1 to 1 µM
Cn1cc(-c2cccc(-c3ccc4c(c3)[C@@]3(COC(N)=N3)c3cc(-c5cnn(C)c5)ncc3O4)c2)cn1 [compound 328],IC50,BACE1 [1]; [6],< 0.1 µM
same,IC50,BACE1 [2]; [7],0.1 to 1 µM
COC(C)(C)COc1ccc2c(c1)[C@@]1(COC(N)=N1)c1cc(-c3cccnc3)cnc1O2 [compound 983],IC50,BACE1 [1]; read-out: BACE1 FRET assay,< 0.1 µM
same,IC50,BACE1 [2]; read-out: HEK cell assay,< 0.1 µM
CC(C)(O)COc1ccc2c(c1)[C@]1(COC(N)=N1)c1cc(-c3ccc(F)nc3)ccc1O2 [compound 222],IC50,BACE1 [1]; [8],< 0.1 µM
same,IC50,BACE1 [2]; [9],< 0.1 µM
"CC(C)(C)CCOc1nccc2c1C1(COC(N)=N1)c1cc(-c3cncnc3)ccc1O2 (stereo not drawn) [Example 109, 1-(3,3-Dimethylbutoxy)-8-(pyrimidin-5-yl)-5′H-spiro[chromeno[3,2-c]pyridine-10,4′-oxazol]-2′-amine]",IC50,BACE1 [1]; [8],0.1 to 1 µM
same,IC50,BACE1 [2]; [9],0.1 to 1 µM
CC(C)(C)CC(O)c1ccc2c(c1)[C@]1(COC(N)=N1)c1cc(-c3ccc(F)nc3)ccc1O2 (stereo partly drawn) [162a],IC50,BACE1 [1]; [8],0.1 to 1 µM
same,IC50,BACE1 [2]; [9],0.1 to 1 µM
COC(C)(C)C#Cc1cnc2c(c1)[C@@]1(COC(N)=N1)c1cc(-c3cnccn3)ccc1O2 [compound 694],IC50,BACE1 [1]; read-out: BACE1 FRET assay,1 to 5 µM
same,IC50,BACE1 [2]; read-out: HEK cell assay,> 5 µM
"NC1=N[C@@]2(CO1)c1cc(-c3cccnc3F)ccc1Oc1cnc(C3CCOCC3)cc12 [Example 495, (5S)-7-(2-fluoro-3-pyridinyl)-3-(tetrahydro-2H-pyran-4-yl)spiro[chromeno[2,3-c]pyridine-5,4′-[1,3]oxazol]-2′-amine]",IC50,BACE1 [1]; BACE1 FRET assay (uM),< 0.1 µM
same,IC50,"BACE1 [2]; HEK cell assay (uM), HEK cells",< 0.1 µM
"CC(C)(C)COc1ccc2c(c1)[C@]1(COC(N)=N1)c1cc(-c3cc(Cl)ccc3F)ccc1O2 [Example 75, (4S)-2′-(5-chloro-2-fluorophenyl)-7′-(2,2-dimethylpropoxy)spiro[1,3-oxazole-4,9′-xanthen]-2-amine]",IC50,BACE1 [1]; [10],< 0.1 µM
same,IC50,BACE1 [2]; [11],0.1 to 1 µM
"Cc1ccc2c(c1)Oc1ccc(-c3ccccc3Cl)cc1C21COC(N)=N1 (stereo not drawn) [Example 29, 2′-(2-chlorophenyl)-6′-methylspiro[1,3-oxazole-4,9′-xanthen]-2-amine]",IC50,"BACE1 [1]; Table 1, read-out: BACE1 FRET assay",> 5 µM
same,IC50,"BACE1 [2]; Table 1, Aβ40, 24 h incubation, read-out: HEK cell assay",> 5 µM
Cc1cc(-c2ccc3c(n2)[C@]2(COC(N)=N2)c2cc(-c4cccnc4F)ccc2O3)ccn1 [compound 401],IC50,BACE1 [1]; [6],0.1 to 1 µM
same,IC50,BACE1 [2]; [7],< 0.1 µM
"CC(C)(C)CC(=O)c1ccc2c(c1)[C@]1(COC(N)=N1)c1cc(-c3cncnc3)ccc1O2 [compound 48, 1-((4S)-2-amino-7′-(5-pyrimidinyl)spiro[1,3-oxazole-4,9′-xanthen]-2′-yl)-3,3-dimethyl-1-butanone]",IC50,BACE1 [1]; [10],0.1 to 1 µM and < 0.1 µM
same,IC50,BACE1 [2]; [11],0.1 to 1 µM and < 0.1 µM
CC(C)(C)OCCOc1ccc2c(c1)[C@]1(COC(N)=N1)c1cc(-c3cccnc3)ccc1O2 [compound 159],IC50,BACE1 [1]; [8],< 0.1 µM
same,IC50,BACE1 [2]; [9],0.1 to 1 µM
NC1=N[C@@]2(CO1)c1cc(-c3cccnc3)ccc1Oc1cnc(N3CCOCC3)cc12 [compound 335],IC50,BACE1 [1]; [6],< 0.1 µM
same,IC50,BACE1 [2]; [7],< 0.1 µM
COC(C)(C)COc1cc2c(cc1F)Oc1ccc(-c3cccnc3)cc1[C@@]21COC(N)=N1 [compound 544],IC50,BACE1 [1]; [4],< 0.1 µM
same,IC50,BACE1 [2]; [5],< 0.1 µM
CC(C)(C)COc1ccc2c(c1)[C@]1(COC(N)=N1)c1cc(C3CCCCC3)ccc1O2 [compound 802],IC50,BACE1 [1]; [4],< 0.1 µM
same,IC50,BACE1 [2]; [5],0.1 to 1 µM
COC(C)(C)COc1ccc2c(c1)[C@@]1(COC(N)=N1)c1cc(-c3ccccc3)cnc1O2 [compound 818],IC50,BACE1 [1]; [4],< 0.1 µM
same,IC50,BACE1 [2]; [5],< 0.1 µM
Cc1cccc(-c2ccc3c(c2)[C@]2(COC(N)=N2)c2cc(-c4cncnc4)ccc2O3)c1 [compound 998],IC50,BACE1 [1]; read-out: BACE1 FRET assay,< 0.1 µM
same,IC50,BACE1 [2]; read-out: HEK cell assay,< 0.1 µM
CC(C)(C)COc1ccc2c(c1)[C@]1(COC(N)=N1)c1cc(-c3cccnc3)ncc1O2 [compound 750],IC50,BACE1 [1]; read-out: BACE1 FRET assay,< 0.1 µM
same,IC50,BACE1 [2]; read-out: HEK cell assay,0.1 to 1 µM
C[C@@H]1OC(N)=N[C@@]12c1cc(OCC(C)(C)C)ccc1Oc1ccc(-c3cncnc3)cc12 [126b],IC50,BACE1 [1]; [8],< 0.1 µM
same,IC50,BACE1 [2]; [9],0.1 to 1 µM
NC1=N[C@@]2(CO1)c1cc(C(=O)N3CCCC3)ccc1Oc1ccc(-c3cccnc3)cc12 [compound 872],IC50,BACE1 [1]; [4],0.1 to 1 µM
same,IC50,BACE1 [2]; [5],0.1 to 1 µM
COc1ccc2c(c1)[C@@]1(COC(N)=N1)c1cc(-c3cncnc3)cc(F)c1O2 [152b],IC50,BACE1 [1]; [8],1 to 5 µM
same,IC50,BACE1 [2]; [9],1 to 5 µM
NC1=N[C@]2(CO1)c1cc(OC3COC3)ccc1Oc1ccc(-c3cncnc3)cc12 [compound 776],IC50,BACE1 [1]; read-out: BACE1 FRET assay,0.1 to 1 µM
same,IC50,BACE1 [2]; read-out: HEK cell assay,0.1 to 1 µM
CC(=O)c1cccc(-c2ccc3c(c2)[C@]2(COC(N)=N2)c2cc(-c4cncnc4)ccc2O3)c1 [compound 889],IC50,BACE1 [1]; [4],< 0.1 µM
same,IC50,BACE1 [2]; [5],< 0.1 µM
COc1cnc2c(c1)[C@]1(COC(N)=N1)c1cc(Br)ccc1O2 [compound 542],IC50,BACE1 [1]; [4],1 to 5 µM
same,IC50,BACE1 [2]; [5],> 5 µM
NC1=N[C@@]2(CO1)c1cc(Br)ccc1Oc1ccc(C#CC3(O)COC3)cc12 [compound 682],IC50,BACE1 [1]; read-out: BACE1 FRET assay,1 to 5 µM
same,IC50,BACE1 [2]; read-out: HEK cell assay,> 5 µM
CC(=O)c1cc(-c2ccc3c(c2)[C@@]2(COC(N)=N2)c2cc(OCC(C)(C)C)ccc2O3)cs1 [compound 836],IC50,BACE1 [1]; [4],1 to 5 µM
same,IC50,BACE1 [2]; [5],1 to 5 µM
NC1=N[C@@]2(CO1)c1cc(-c3cccnc3)ccc1Oc1cnc(C3=CCCCC3)cc12 [compound 848],IC50,BACE1 [1]; [4],< 0.1 µM
same,IC50,BACE1 [2]; [5],< 0.1 µM
CC(C)(C)COc1ccc2c(c1)[C@]1(COC(N)=N1)c1cc(-c3ccc(C#N)cc3)ccc1O2 [compound 972],IC50,BACE1 [1]; read-out: BACE1 FRET assay,0.1 to 1 µM
same,IC50,BACE1 [2]; read-out: HEK cell assay,> 5 µM
CC1(COc2ccc3c(c2)[C@@]2(COC(N)=N2)c2cc(-c4cncnc4)cc(F)c2O3)COC1 [compound 795],IC50,BACE1 [1]; [4],< 0.1 µM
same,IC50,BACE1 [2]; [5],< 0.1 µM
NC1=N[C@@]2(CO1)c1cc(-c3ccccc3F)ccc1Oc1cnc(Cl)cc12 [compound 425],IC50,BACE1 [1]; read-out: BACE1 FRET assay,0.1 to 1 µM
same,IC50,BACE1 [2]; [3],> 5 µM
NC1=N[C@]2(CO1)c1ccccc1Oc1cc(F)c(-c3cccnc3)cc12 [compound 569],IC50,BACE1 [1]; [4],0.1 to 1 µM
same,IC50,BACE1 [2]; [5],0.1 to 1 µM
NC1=NC2(CO1)c1cc(-c3ccccc3)ccc1Oc1ccc(-c3ccccc3)cc12 [compound 532],IC50,BACE1 [1]; [4],< 0.1 µM
same,IC50,BACE1 [2]; [5],0.1 to 1 µM
CC(C)(C#N)COc1cnc2c(c1)[C@]1(COC(N)=N1)c1cc(-c3cccnc3)ccc1O2 [compound 410],IC50,BACE1 [1]; [6],< 0.1 µM
same,IC50,BACE1 [2]; [7],< 0.1 µM
CC(C)(C)C#Cc1ccc2c(n1)[C@]1(COC(N)=N1)c1cc(-c3cncnc3)ccc1O2 [compound 526],IC50,BACE1 [1]; read-out: BACE1 FRET assay,0.1 to 1 µM
same,IC50,BACE1 [2]; [3],0.1 to 1 µM
CC1(COc2ccc3c(c2)[C@]2(COC(N)=N2)c2cc(-c4cncnc4)cc(F)c2O3)COC1 [compound 796],IC50,BACE1 [1]; [4],< 0.1 µM
same,IC50,BACE1 [2]; [5],0.1 to 1 µM
CC(C)(C)COc1ccc2c(c1)[C@@]1(CSC(N)=N1)c1cc(-c3cncnc3)ccc1O2 [compound 721],IC50,BACE1 [1]; read-out: BACE1 FRET assay,< 0.1 µM
same,IC50,BACE1 [2]; read-out: HEK cell assay,1 to 5 µM
COc1ccncc1-c1ccc2c(c1)[C@@]1(COC(N)=N1)c1cc(OCC(C)(C)C)ccc1O2 [compound 217],IC50,BACE1 [1]; [8],0.1 to 1 µM
same,IC50,BACE1 [2]; [9],1 to 5 µM
CC(C)(C)C#Cc1ccc2c(c1)[C@]1(COC(N)=N1)c1nc(-c3cccnc3)ccc1O2 [compound 697],IC50,BACE1 [1]; read-out: BACE1 FRET assay,0.1 to 1 µM
same,IC50,BACE1 [2]; read-out: HEK cell assay,1 to 5 µM
COCC[C@H]1CN(c2ccc3c(c2)[C@]2(COC(N)=N2)c2cc(-c4cccnc4)ccc2O3)CCO1 [compound 361],IC50,BACE1 [1]; [6],0.1 to 1 µM
same,IC50,BACE1 [2]; [7],< 0.1 µM

# — patent US8426447B2, “Spiro-tricyclic ring compounds as beta-secretase modulators and methods of use” (Amgen Inc., priority 2008, dated 2013)
